Data taken from patent US11434240B2, “TYK2 inhibitors and uses thereof” (Nimbus Lakshmi, Inc., priority 2015, dated 2022).
Values belong to the compound of their own block, whether it stands above or below them.

Tests used:
[1] = tested on: JAK2-pSTAT5 (GM-CSF induced pSTAT5); assay: GM-CSF induced pSTAT5 in human PBMC; assay type: cell-based; details: 20 min, 5 ng/mL GM-CSF for 20 minutes, legend words it as IC50
Method: (§1) Human PBMC are isolated from buffy coat and are stored frozen for assays as needed. Cells for assay are thawed and resuspended in complete media containing serum, then cells are diluted to 1.67 E6 cells/ml so that 120 ul per well is 200,000 cells. 15 ul of compound or DMSO is added to the well at the desired concentrations and incubated at 1 hr at 37 C. 15 ul of stimulus (final concentration of 1.7 ng/mL IL-12) is added for 30 minutes prior to pSTAT4 and total STAT4 analysis using cell lysates prepared and analyzed by MSD reagents as per manufacturer protocol. The final DMSO concentration of compound in the assay is 0.1%.
Cells are prepared for analysis as in the above procedure and 15 ul of GM-CSF (final concentration 5 ng/mL) is added for 20 minutes prior to pSTAT5 and total STAT5 analysis using cell lysates prepared and analyzed by MSD reagents as per manufacturer protocol. The final DMSO concentration of compound in the assay is 0.1%.

[2] = tested on: Tyk2-pSTAT4 (IL-12 induced pSTAT4); assay: IL-12 induced pSTAT4 in human PBMC; assay type: cell-based; details: 0.5 h, 1.7 ng/mL IL-12 for 30 minutes, legend words it as IC50
Method: as §1

[3] = molecular target: JAK2 (Invitrogen) kinase (Homo sapiens (Human), UniProt O60674); assay: JAK2 radioactive kinase assay; assay type: biochemical; details: ATP at 10 μM
Method: Peptide substrate, [KKSRGDYMTMQIG], (20 μM) is prepared in reaction buffer (20 mM Hepes pH 7.5, 10 mM MgCl2, 1 mM EGTA, 0.02% Brij35, 0.02 mg/mL BSA, 0.1 mM […], 2 mM DTT, 1% DMSO. TYK2 (Invitrogen) kinase is added, followed by compounds in DMSO. ^33PATP is added to initiate the reaction with ATP at 10 μM. Kinase reaction is incubated for 120 min at room temp and reactions are spotted onto P81 ion exchange paper (Whatman #3698-915), and then washed extensively in 0.75% phosphoric acid, prior to reading the radioactivity counts. For JAK2 (Invitrogen) kinase assay the peptide substrate poly[Glu:Tyr](4:1), 0.2 mg/ml is used, in the reaction carried out the same as for TYK2.

Chain of JAK2 (Invitrogen) kinase (O60674 whole entry): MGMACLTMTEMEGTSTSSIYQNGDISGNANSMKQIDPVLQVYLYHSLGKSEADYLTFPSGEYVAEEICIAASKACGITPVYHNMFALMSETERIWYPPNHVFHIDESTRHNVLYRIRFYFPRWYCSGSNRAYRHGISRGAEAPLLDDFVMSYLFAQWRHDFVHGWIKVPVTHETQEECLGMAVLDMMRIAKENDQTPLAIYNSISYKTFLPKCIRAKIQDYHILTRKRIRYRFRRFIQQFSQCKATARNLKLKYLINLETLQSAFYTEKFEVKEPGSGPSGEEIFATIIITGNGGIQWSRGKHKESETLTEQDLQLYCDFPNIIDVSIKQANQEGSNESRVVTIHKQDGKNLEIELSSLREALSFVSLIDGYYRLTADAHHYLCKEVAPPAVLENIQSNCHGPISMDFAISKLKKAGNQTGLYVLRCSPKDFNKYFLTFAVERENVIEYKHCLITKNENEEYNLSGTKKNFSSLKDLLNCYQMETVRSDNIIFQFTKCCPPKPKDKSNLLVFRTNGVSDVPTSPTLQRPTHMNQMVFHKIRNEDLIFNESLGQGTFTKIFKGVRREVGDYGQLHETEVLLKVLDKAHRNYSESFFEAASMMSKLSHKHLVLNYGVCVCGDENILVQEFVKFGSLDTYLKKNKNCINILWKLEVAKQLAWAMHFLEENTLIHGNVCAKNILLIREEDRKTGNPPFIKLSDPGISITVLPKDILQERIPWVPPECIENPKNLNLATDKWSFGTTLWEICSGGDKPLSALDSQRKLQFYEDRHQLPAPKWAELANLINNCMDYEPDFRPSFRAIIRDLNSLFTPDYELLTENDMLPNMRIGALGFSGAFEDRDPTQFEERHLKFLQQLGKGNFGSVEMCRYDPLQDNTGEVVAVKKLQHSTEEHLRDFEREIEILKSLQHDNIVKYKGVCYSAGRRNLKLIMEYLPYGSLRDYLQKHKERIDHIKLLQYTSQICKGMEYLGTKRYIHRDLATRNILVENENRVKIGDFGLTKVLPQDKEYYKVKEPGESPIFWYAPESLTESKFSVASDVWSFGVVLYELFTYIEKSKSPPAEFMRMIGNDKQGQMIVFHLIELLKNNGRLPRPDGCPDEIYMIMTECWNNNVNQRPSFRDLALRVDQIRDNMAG

SMILES: CN1CCN(c2ccn(-c3cc(-c4c(F)cccc4F)nc4c3C(=O)NC4)n2)CC1 [I-5, 2-(2,6-difluorophenyl)-4-(3-(4-methylpiperazin-1-yl)-1H-pyrazol-1-yl)-6,7-dihydro-5H-pyrrolo[3,4-b]pyridin-5-one]
EC50 [1]: > 2000 nM

EC50 ([1]; Homo sapiens, PBMC): 100 to 2000 nM
EC50 [2]: 100 to 2000 nM
SMILES: N#Cc1cccc(F)c1-c1cc(-n2ccc(N3CCC(N4CCOCC4)CC3)n2)c2c(n1)CNC2=O [I-59, 3-fluoro-2-(4-(3-(4-morpholinopiperidin-1-yl)-1H-pyrazol-1-yl)-5-oxo-6,7-dihydro-5H-pyrrolo[3,4-b]pyridin-2-yl)benzonitrile]

Ki [3]: 0.1 to 10 nM
SMILES: CO[C@@H]1CN(c2ccn(-c3cc(-c4c(F)cccc4C#N)nc4c3C(=O)NC4)n2)C[C@@H]1O [I-154, 3-fluoro-2-(4-(3-((3S,4R)-3-hydroxy-4-methoxypyrrolidin-1-yl)-1H-pyrazol-1-yl)-5-oxo-6,7-dihydro-5H-pyrrolo[3,4-b]pyridin-2-yl)benzonitrile]
